According to patent US12447156B2, “Treating progressive familial intrahepatic cholestasis (PFIC) with IBAT inhibitors” (ALBIREO AB, priority 2020, dated 2025):
“Also recorded” adds a separate entry of the source.

Assays:
[1] = system: children with PFIC1 or PFIC2; assay: PEDFIC 1: safety (treatment-emergent adverse events)
Source text: The primary safety analysis for PEDFIC 1 was based on the incidence of treatment-emergent adverse events (TEAEs). TEAEs were categorized by causality, severity, and seriousness for odevixibat and placebo. Other safety assessments included physical examinations, vital signs, laboratory tests, and abdominal ultrasounds (liver and spleen).
Secondary endpoints, exploratory endpoints, subgroup analyses, and safety data were summarized descriptively. Adverse events (AEs) were coded using Medical Dictionary for Regulatory Activities version 23.0.

[2] = system: patients with PFIC; assay: PEDFIC 2 open-label phase 3 extension trial, interim analysis: efficacy; type: in vivo, human; details: for mean change from baseline in sBAs through PEDFIC 2 week 12: odevixibat naive at PEDFIC 2 baseline
Protocol: After treatment in the first trial (Example 1), patients were eligible to enroll in a second trial, a 72-week open-label extension trial. In this ongoing 72-week open-label extension trial, PFIC patients were treated with odevixibat 120 μg/kg/day. The 69 patients (PFIC1 (26%), PFIC2 (65%) or PFIC3 (7%)) treated with 120 μg/kg/day for up to 48 weeks experienced a durable effect on serum bile acids reduction and improvement in growth velocity based on review of z scores for height, weight and BMI, and improvement in ALT, AST and total bilirubin. The effects were maintained for patients treated for 18 months or longer. The example details the interim analysis through 24 weeks of treatment.
Study Design • This phase 3 study included a screening period (for newly enrolled patients [i.e., cohort 2] only) and a 72-week treatment period (FIG. 9) in which all patients received oral, once-daily odevixibat 120 μg/kg. • Patients returned to the clinic 4 and 12 weeks after the first dose of odevixibat and then approximately every 10 to 12 weeks thereafter. • Following the 72-week treatment period, patients either enrolled in an optional extension for continued treatment or returned for a follow-up visit 4 weeks after ending study drug. Outcomes, Assessments, and Statistical Analysis • The primary efficacy outcomes were to assess the effects of odevixibat on sBAs and pruritus, including mean changes and proportion of patients meeting response criteria. • sBA responders were defined as patients who achieved a normalization of sBAs or reduction of ≥70%. • Pruritus responders were defined as patients who achieved a ≥1-point drop on the pruritus assessment. • Secondary outcomes included characterizing the long-term safety and tolerability of odevixibat, as well as the effects of odevixibat on growth, biliary diversion and/or liver transplantation, and markers of cholestasis and liver disease. • For the P1O and PIP groups, there were 2 baselines (PEDFIC 1 baseline and PEDFIC 2 baseline); for those in cohort 2, baseline refers to the value prior to initiation of odevixibat in PEDFIC 2. • This interim analysis focuses on data collected after 24 weeks of treatment in PEDFIC 2. • T tests were used to calculate P values for primary outcomes in the P1O group only; other outcomes were summarized descriptively.

[3] = system: children with PFIC; assay: Pooled PEDFIC 1/2 subgroup analysis by concomitant UDCA and/or rifampicin; type: in vivo, human; details: for patients meeting criteria for serum bile acid response: after 48 weeks; for mean proportion of positive pruritus assessments (PPAs): over 48 weeks
Protocol: Methods: In the double-blind PEDFIC 1 study, children with PFIC1 or PFIC2 were randomized to placebo or odevixibat 40 or 120 μg/kg/day for 24 weeks. In PEDFIC 2, an ongoing, open label extension study, patients from PEDFIC 1 or new patients with any PFIC subtype received odevixibat 120 μg/kg/day. Concomitant UDCA and/or rifampicin were allowed if the patient was on a stable dose. This pooled analysis includes up to 48 weeks of odevixibat treatment from PEDFIC 1 and through the PEDFIC 2 interim data cut (37 weeks; range: 1-108 weeks). Pre-specified subgroup analyses evaluated the following outcomes based on use of UDCA and/or rifampicin: serum bile acid response (i.e., ≥70% reduction from baseline or serum bile acid levels ≤70 μmol/L after 48 weeks), proportion of positive pruritus assessments (PPAs) at the patient level (i.e., scratching score ≤1 or a ≥1-point drop from baseline on the validated PRUCISION instrument) over the 48-week treatment period, and treatment-emergent adverse events (TEAEs).

[4] = PEDFIC 1, 120 μg/kg/day, n = 19
[5] = Cohort 2, through week 24 of PEDFIC 2, n 4
[6] = P1O, through week 24 of PEDFIC 2, n 21
[7] = P1P, through week 24 of PEDFIC 2, n 9
[8] = patients not using UDCA and/or rifampicin
[9] = patients using UDCA and/or rifampicin

CCCCC1(CCCC)CN(c2ccccc2)c2cc(SC)c(OCC(=O)N[C@@H](C(=O)N[C@@H](CC)C(=O)O)c3ccc(O)cc3)cc2S(=O)(=O)N1 [Odevixibat, 1,1-dioxo-3,3-dibutyl-5-phenyl-7-methylthio-8-(N-{(R)-α-[N-((S)-1-carboxypropyl)carbamoyl]-4-hydroxybenzyl}carbamoylmethoxy)-2,3,4,5-tetrahydro-1,2,5-benzothiadiazepine]
Any TEAE, patients ([1]; PEDFIC 1, 40 μg/kg/day, n = 23): 19 (82.6) n (%)
Drug-related TEAE, patients ([1]; PEDFIC 1, 40 μg/kg/day, n = 23): 7 (30.4) n (%)
Drug-related TEAE: ALT increased, patients ([1]; PEDFIC 1, 40 μg/kg/day, n = 23): 2 (8.7) n (%)
Drug-related TEAE: AST increased, patients ([1]; PEDFIC 1, 40 μg/kg/day, n = 23): 2 (8.7) n (%)
Drug-related TEAE: Blood bilirubin increased, patients ([1]; PEDFIC 1, 40 μg/kg/day, n = 23): 2 (8.7) n (%)
Drug-related TEAE: Diarrhea/frequent bowel movements, patients ([1]; PEDFIC 1, 40 μg/kg/day, n = 23): 2 (8.7) n (%)
Liver-related TEAEs, patients ([1]; PEDFIC 1, 40 μg/kg/day, n = 23): 5 (21.7) n (%)
Mild TEAE, patients ([1]; PEDFIC 1, 40 μg/kg/day, n = 23): 11 (47.8) n (%)
Moderate TEAE, patients ([1]; PEDFIC 1, 40 μg/kg/day, n = 23): 7 (30.4) n (%)
Serious TEAEs, patients ([1]; PEDFIC 1, 40 μg/kg/day, n = 23): 0 n (%)
Severe TEAE, patients ([1]; PEDFIC 1, 40 μg/kg/day, n = 23): 1 (4.3) n (%)
TEAEs leading to discontinuation, patients ([1]; PEDFIC 1, 40 μg/kg/day, n = 23): 0 n (%)
Any TEAE, patients [1, 4]: 16 (84.2) n (%)
Drug-related TEAE, patients [1, 4]: 7 (36.8) n (%)
Drug-related TEAE: ALT increased, patients [1, 4]: 2 (10.5) n (%)
Drug-related TEAE: AST increased, patients [1, 4]: 1 (5.3) n (%)
Drug-related TEAE: Blood bilirubin increased, patients [1, 4]: 2 (10.5) n (%)
Drug-related TEAE: Diarrhea/frequent bowel movements, patients [1, 4]: 2 (10.5) n (%)
Liver-related TEAEs, patients [1, 4]: 6 (31.6) n (%)
Mild TEAE, patients [1, 4]: 8 (42.1) n (%)
Moderate TEAE, patients [1, 4]: 6 (31.6) n (%)
Serious TEAEs, patients [1, 4]: 3 (15.8) n (%)
Severe TEAE, patients [1, 4]: 2 (10.5) n (%)
TEAEs leading to discontinuation, patients [1, 4]: 1 (5.3) n (%)
deaths, treatment-related serious AEs, TEAEs related to liver decompensation ([1]; PEDFIC 1, 24 weeks): No deaths, treatment-related serious AEs, or TEAEs related to liver decompensation occurred; also recorded: no deaths or treatment-related serious adverse events
tolerability ([1]; PEDFIC 1, 40 and 120 μg/kg/day over 24 weeks): well tolerated
patients with at least one TEAE ([1]; PEDFIC 1, all doses (35 of 42 patients)): 83%
Any TEAE, patients ([1]; PEDFIC 1, all doses, n = 42): 35 (83.3) n (%)
Drug-related TEAE, patients ([1]; PEDFIC 1, all doses, n = 42): 14 (33.3) n (%)
Drug-related TEAE: ALT increased, patients ([1]; PEDFIC 1, all doses, n = 42): 4 (9.5) n (%)
Drug-related TEAE: AST increased, patients ([1]; PEDFIC 1, all doses, n = 42): 3 (7.1) n (%)
Drug-related TEAE: Blood bilirubin increased, patients ([1]; PEDFIC 1, all doses, n = 42): 4 (9.5) n (%)
Drug-related TEAE: Diarrhea/frequent bowel movements, patients ([1]; PEDFIC 1, all doses, n = 42): 4 (9.5) n (%)
Liver-related TEAEs, patients ([1]; PEDFIC 1, all doses, n = 42): 11 (26.2) n (%)
Mild TEAE, patients ([1]; PEDFIC 1, all doses, n = 42): 19 (45.2) n (%)
Moderate TEAE, patients ([1]; PEDFIC 1, all doses, n = 42): 13 (31.0) n (%)
Serious TEAEs, patients ([1]; PEDFIC 1, all doses, n = 42): 3 (7.1) n (%)
Severe TEAE, patients ([1]; PEDFIC 1, all doses, n = 42): 3 (7.1) n (%)
TEAEs leading to discontinuation, patients ([1]; PEDFIC 1, all doses, n = 42): 1 (2.4) n (%)
TEAE vomiting ([1]; PEDFIC 1, all doses, placebo 0%): 17%
TEAE ALT increase ([1]; PEDFIC 1, all doses, placebo 5%): 14%
TEAE serum bilirubin increase ([1]; PEDFIC 1, all doses, placebo 10%): 12%
TEAE upper respiratory tract infection ([1]; PEDFIC 1, all doses, placebo 15%): 19%
TEAEs considered related to study drug by the investigator ([1]; PEDFIC 1, all doses, placebo 15.0%): 33.3%
TEAE fever ([1]; PEDFIC 1, all doses, placebo 25%): 29%
treatment-related AEs of diarrhea or frequent bowel movement ([1]; PEDFIC 1, odevixibat-treated patients): 9.5%
PELD/MELD, Mean Change From Baseline (SE) ([2]; Cohort 2, through week 24 of PEDFIC 2, n 2): 1.7 (5.8)
APRI, Mean Change From Baseline (SE) [2, 5]: 0.1 (0.2)
Serum ALT, Mean Change From Baseline (SE) [2, 5]: −9.8 (31.1) U/L
Serum AST, Mean Change From Baseline (SE) [2, 5]: −7.8 (16.2) U/L
Total bilirubin, Mean Change From Baseline (SE) [2, 5]: −0.2 (0.5) mg/dL
mean sBAs at PEDFIC 2 week 24 ([2]; P1O group, ~48 weeks cumulative odevixibat exposure, PEDFIC 1 baseline 251.8): 85.1 µmol/L
mean monthly pruritus score at PEDFIC 2 week 24 ([2]; P1O group, PEDFIC 1 baseline 3.0): 1.4
mean height Z score at week 24 of PEDFIC 2 ([2]; P1O group, PEDFIC 1 baseline −1.6): −0.5
mean weight Z score after 48 weeks ([2]; P1O group, baseline −0.9): 0.2
PELD/MELD, Mean Change From Baseline (SE) ([2]; P1O, through week 24 of PEDFIC 2, n 17): −0.2 (0.3)
APRI, Mean Change From Baseline (SE) ([2]; P1O, through week 24 of PEDFIC 2, n 18): −0.0 (0.1)
Serum AST, Mean Change From Baseline (SE) ([2]; P1O, through week 24 of PEDFIC 2, n 20): −14.6 (10.0) U/L
Serum ALT, Mean Change From Baseline (SE) [2, 6]: −26.9 (22.6) U/L
Total bilirubin, Mean Change From Baseline (SE) [2, 6]: −0.2 (0.1) mg/dL
mean sBAs over the course of PEDFIC 2 ([2]; P1P group (placebo in PEDFIC 1), 120 μg/kg/day, PEDFIC 2 baseline 270.8): 155.6 µmol/L
APRI, Mean Change From Baseline (SE) [2, 7]: 0.1 (0.1)
PELD/MELD, Mean Change From Baseline (SE) [2, 7]: −1.4 (1.2)
Serum ALT, Mean Change From Baseline (SE) [2, 7]: 16.3 (20.7) U/L
Serum AST, Mean Change From Baseline (SE) [2, 7]: −1.7 (5.6) U/L
Total bilirubin, Mean Change From Baseline (SE) [2, 7]: −1.6 (1.3) mg/dL
patients who underwent surgical biliary diversion or had a liver transplant ([2]; PEDFIC 1 baseline through week 24 of PEDFIC 2, 2 patients): 3%
change in mean sBAs from baseline to week 12 of PEDFIC 2 ([2]; cohort 2 (newly enrolled), 120 μg/kg/day): -73.1 µmol/L
mean sBAs at week 12 of PEDFIC 2 ([2]; cohort 2 (newly enrolled), 120 μg/kg/day, baseline 221.5): 157.0 µmol/L
mean change from baseline in sBAs through PEDFIC 2 week 12 ([2]; PFIC1, n=5): −31.7
mean change from baseline in sBAs through PEDFIC 2 week 12 ([2]; PFIC2, n=17): −120.8
mean change from baseline in sBAs through PEDFIC 2 week 12 ([2]; PFIC3, n=3): −107.5
average sBAs relative to published threshold for PFIC2 disease modification ([2]; patients treated for 48 weeks): fell below the published threshold for PFIC2 disease modification
patients meeting criteria for serum bile acid response ([3]; patients not using UDCA): 40%
patients meeting criteria for serum bile acid response [3, 8]: 67%
patients meeting criteria for serum bile acid response ([3]; patients not using rifampicin): 82%
patients meeting criteria for serum bile acid response ([3]; patients using UDCA): 74%
patients meeting criteria for serum bile acid response [3, 9]: 67%
patients meeting criteria for serum bile acid response ([3]; patients using rifampicin): 54%
mean proportion of positive pruritus assessments (PPAs) ([3]; patients not using UDCA): 72%
mean proportion of positive pruritus assessments (PPAs) [3, 8]: 69%
mean proportion of positive pruritus assessments (PPAs) ([3]; patients not using rifampicin): 81%
mean proportion of positive pruritus assessments (PPAs) ([3]; patients using UDCA): 65%
mean proportion of positive pruritus assessments (PPAs) [3, 9]: 66%
mean proportion of positive pruritus assessments (PPAs) ([3]; patients using rifampicin): 56%
incidence of TEAEs ([3]; patients not using UDCA): 87%
incidence of TEAEs [3, 8]: 90%
incidence of TEAEs ([3]; patients not using rifampicin): 86%
incidence of TEAEs ([3]; patients using UDCA): 77%
incidence of TEAEs [3, 9]: 78%
incidence of TEAEs ([3]; patients using rifampicin): 75%
